≈ marks a conversion by molar mass, not a printed value.
Key:
erythrocytes [1] = format: cell-based, human
Experimental: FIG. 2 graphically illustrates the hemolytic effects of two hydroxyalkyl substituted cyclodextrins, 2-hydroxyethyl-β-cyclodextrin (β-CD-4-Et) and 2-hydroxypropyl-β-cyclodextrin (β-CD-4Pr) in comparison to the polyanionically substituted cyclodextrin β-cyclodextrin-tetradecasulfate sodium (β-CD-14s) on fresh human blood to which about 0.47% sodium citrate was added.
The first sample contained erythrocytes and isotonic saline. This first sample served as a zero blank.

erythrocytes [2] = test: inhibition of hemolysis induced by hemolytic agents (CPZ, CD, Pr-OH-CD, clay); details: for Hemolysis: 15 min
Experimental: Unless explicitly stated otherwise, hemolytic activity was measured by the procedure described by I. Jodal et al., Proceedings of the Fourth International Symposium on Cyclodextrins, O. Huber and J. Szejtli, Eds., 421-425, Kluwer Academic Publishers, Boston (1988), which is incorporated herein by reference.
For each of the examples which follow, sodium citrate was added about (to about 0.47%) to fresh human blood collected from healthy laboratory personnel. After centrifugation (10 min., 400×G) to separate the erythrocytes from other blood components, the supernatant erythrocyte fraction was recentrifuged and washed twice with isotonic phosphate buffer. The erythrocytes were diluted with that buffer to a 10% hematocrit value to obtain an erythrocyte suspension. Test material and erythrocytes were mixed as follows: about 3.6, 1.8, and 0.9 ml of a test material solution was mixed with about 0.4, 0.2 and 0.1 ml, respectively, of erythrocyte suspension and then incubated for about 15 minutes each at about 37° C., followed by two centrifugations for two minutes each at about 4000×G The resulting supernatants were measured for absorbance at 543 nm using a Gilford spectrophotometer. The percent of hemolysis was determined by reference to two control samples. The first sample contained erythrocytes and isotonic saline. This first sample served as a zero blank. The second sample was identical to the first but had been sonicated to provide a value for 100% hemolysis.

solubility limit = format: physicochemical; details: 20° C.
erythrocytes [3] = details: 1.0 mM β-cyclodextrin, simultaneous use (Uekama 1981); cited from earlier work
erythrocytes [4] = details: cited from earlier work; for concentration above/at which hemolysis is induced: background statement; for hemolytic activity (in words): known in the art / literature
in vitro = format: cell-based, human; details: human, erythrocytes
erythrocytes [5] = test: in vitro; format: cell-based, human

Question: With “2-hydroxypropyl-β-cyclodextrin [β-CD-4Pr]” as the molecule, how does the “hemolytic effect (FIG. 2)” value (erythrocytes [1]) read?
Answer: induced hemolysis at low concentrations

Question: For “2-hydroxyethyl-β-cyclodextrin [β-CD-4-Et]”, which “hemolytic effect (FIG. 2)” value (erythrocytes [1]) is on record?
Answer: induced hemolysis at low concentrations

Question: With “β-cyclodextrin-tetradecasulfate sodium [β-CD-14s]” as the molecule, how does the “hemolytic effect (FIG. 2)” value (erythrocytes [1]) read?
Answer: no undesirable hemolytic properties

Question: What about the “reduction of the level of hemolysis” value (erythrocytes [2]; CD about 15 mg/ml, β-CD-14s 50 mg/ml) of the same molecule?
Answer: about 41%

Question: And the “fold reduction of hemolysis” value (erythrocytes [2]; CD about 15 mg/ml, β-CD-14s 150 mg/ml)?
Answer: about 30 fold

Question: And the “hemolytic activity of the composition with CPZ (in words)” value (erythrocytes [2]; Example 23: CPZ 1.0 mg/ml + 50 mg/ml CDS)?
Answer: substantially reduced hemolytic activity

Question: What about the “hemolytic effect (in words)” value (erythrocytes [2]; about 70 mg/ml CDS, about 2.0 mg/ml CPZ) of the same molecule?
Answer: negligible hemolytic effect

Question: And the “fold improvement, that is, reduction in hemolysis” value (erythrocytes [2]; hydroxypropyl cyclodextrin 75 mg/ml, β-CD-14s 100 mg/ml)?
Answer: at least 20 fold

Question: Which results are given for `OC[C@H]1O[C@@H]2O[C@H]3[C@H](O)[C@@H](O)[C@@H](O[C@H]4[C@H](O)[C@@H](O)[C@@H](O[C@H]5[C@H](O)[C@@H](O)[C@@H](O[C@H]6[C@H](O)[C@@H](O)[C@@H](O[C@H]7[C@H](O)[C@@H](O)[C@@H](O[C@H]8[C@H](O)[C@@H](O)[C@@H](O[C@H]1[C@H](O)[C@H]2O)O[C@@H]8CO)O[C@@H]7CO)O[C@@H]6CO)O[C@@H]5CO)O[C@@H]4CO)O[C@@H]3CO` [β-CD, β-cyclodextrin]?
Answer: onset of hemolysis (concentration inducing hemolysis) (erythrocytes [1]; human): about 6 mg/ml; solubility (solubility limit): 13 to 18 mg/mL (≈ 11.5 to 15.9 mM); inhibition of hemolytic action of chlorpromazine (erythrocytes [3]): inhibits the hemolytic action; concentration above/at which hemolysis is induced (erythrocytes [4]): 2000 to 3000 µM; Hemolysis (erythrocytes [2]; CPZ 0.5 mg/ml (1.5 mM) + CD 5.0 mg/ml (4.0 mM), molar ratio CD/CPZ 2.7 (Example 20)): 6.5; Hemolysis (erythrocytes [2]; CPZ 0.75 mg/ml (2.25 mM) + CD 7.5 mg/ml (6.0 mM), molar ratio CD/CPZ 2.7 (Example 21)): 21; Hemolysis (erythrocytes [2]; CPZ 1.0 mg/ml (3.0 mM) + CD 10 mg/ml (8.0 mM), molar ratio CD/CPZ 2.7 (Example 22)): 80; protection from hemolysis by CPZ (in words) (erythrocytes [2]; Example 20: CPZ 0.5 mg/ml + CD 5.0 mg/ml): considerable protection; protection from hemolysis by CPZ (in words) (erythrocytes [2]; Examples 21 and 22: CPZ 0.75-1.0 mg/ml + CD 7.5-10 mg/ml): protection is lost

Question: Which results are given for `CN(C)CCCN1c2ccccc2Sc2ccc(Cl)cc21` [CPZ, chloropromazine]?
Answer: hemolysis at 0.25 h (in vitro; 0.5 mg/ml of CPZ): ~100%; hemolysis at 0.25 h (in vitro; CPZ 0.15 mg/ml (Example 1)): 4.9%; hemolysis at 0.25 h (in vitro; CPZ 0.25 mg/ml (Example 2)): 7%; hemolysis at 0.25 h (in vitro; CPZ 0.30 mg/ml (Example 3)): 88%; hemolysis at 0.25 h (in vitro; CPZ 0.40 mg/ml (Example 4)): 96%; hemolysis (in words) (erythrocytes [5]; concentrations approaching 0.5 mg/ml of CPZ): complete hemolysis; hemolysis (in words) (erythrocytes [5]; without CDS, about one-fifth of 2.0 mg/ml CPZ (Example 4)): substantially complete hemolysis; concentration above/at which hemolysis is induced (erythrocytes [4]): > 500 µM; hemolytic activity (in words) (erythrocytes [4]): hemolysis inducing agents

Question: For `CC(C(=O)O)c1ccc(-c2ccccc2)c(F)c1` (stereo not shown) [flurbiprofen], which “hemolytic activity (in words)” value (erythrocytes [4]) is on record?
Answer: hemolysis inducing agents

Question: Which “hemolytic activity (in words)” value (erythrocytes [4]) does the source give for `C=C[C@]1(C)C[C@@H](OC(=O)CSCCN(CC)CC)[C@]2(C)[C@H](C)CC[C@]3(CCC(=O)[C@H]32)[C@@H](C)[C@@H]1O` [tiamulin] here?
Answer: hemolysis inducing agents

From patent publication US5776914A, “Prevention of hemolysis” (The Trustees of the University of Pennsylvania, priority 1994, dated 1998)
